Source: patent US20260226029A1, “1-(1-Oxo-1,2-Dihydrophthalazin-6-yl)Cycloalkyl-1-Carboxamide Derivatives as MTA-Cooperative Inhibitors of PRMT5” (BeOne Medicines I GmbH, priority 2023, published 2026)

Tests used:
HCT116-mock-RNA-KO = assay: Compounds cell killing in HCT116 isogenic pair (CellTiter-Glo, 6 days), mock-KO (MTAP wildtype) cells; assay type: cell-based; conditions: Homo sapiens, HCT-116, 144 h, Cell Titer-Glo, 0-10 μM
From the text: (§1) HCT116 cell line (ATCC, CCL-247) was isolated from the colon of an adult with colon cancer. It has a mutation in codon 13 of the ras proto-oncogene and can be used as a positive control for PCR assays of mutation in this codon. HCT116-MTAP-KO was knocked-out-MTAP-gene based HCT116, and a single clone was passed for this assay. HCT116-mock-RNA-KO was knocked-out-mock-gene based HCT116 with MTAP wildtype genotype. The base medium for HCT116 isogenic pair is RPMI 1640, HEPES (Gibco, 22400105). To make the complete growth medium, add the following components to the base medium: fetal bovine serum to a final concentration of 10% (Gibco, 10099-141C). The cell line was grown in a humidified 5% CO2 atmosphere at 37° C. and regularly tested for the presence of mycoplasma with MycoAlert™ PLUS Mycoplasma Detection Kit (Lonza, LT07-710).
(§2) • Seed HCT116-mock-RNA-KO (4E2/well) or HCT116-MTAP-KO (4E2/well) cells into a 96-well plate (Greiner: 655090), 100 µL/well. • Incubate at 37° C., 5% CO2, overnight. • Add 50 μL fresh growth-medium containing serial dilution of compounds for a final compound concentration of 0-10 μM to each well. • Incubate at 37° C., 5% CO2, 6 days. • The cell viability detected by Cell Titer-Glo (Promega, G7573). Add 70 μL of CellTiter-Glo® reagent in each well. • Incubate at room temperature for 10 minutes to stabilize luminescent signal. • Analyze with Microplate Reader (TECAN, SPARK) and fit IC50 using Prism® 9.

HCT116-MTAP-KO = assay: Compounds cell killing in HCT116 isogenic pair (CellTiter-Glo, 6 days), MTAP-KO cells; assay type: cell-based; conditions: Homo sapiens, HCT-116, 144 h, Cell Titer-Glo, 0-10 μM
From the text: as §1, §2

NCc1n[nH]c(=O)c2ccc(C3(C(=O)N(Cc4ccc(C(F)(F)F)cn4)C4CCCc5cccnc54)CCC3)cc12 (centres unmarked) [Example 35, 1-(4-(aminomethyl)-1-oxo-1,2-dihydrophthalazin-6-yl)-N-(5,6,7,8-tetrahydroquinolin-8-yl)-N-((5-(trifluoromethyl)pyridin-2-yl)methyl)cyclobutane-1-carboxamide]
IC50 (HCT116-mock-RNA-KO): > 10000 nM | IC50 (HCT116-MTAP-KO): 924 nM
